Data reported in patent US5658908A (priority 1992, dated 1997).
Where two headings read alike, the source gives them in different places.

Key:
mouse vas deferens = biological target: T1, mouse vas deferens (Mus musculus, UniProt P32300); assay: cell-based; format: cell-based
T1 construct: Vasa deferentia were removed from mice; from tissue; host or cells: mouse vas deferens

Mu Receptor = biological target: T2, Mu Receptor (Rattus norvegicus, UniProt P33535); assay: Mu receptor binding, rat brain membranes; set-up: species or system rat (Sprague-Dawley)
T2 construct: Rat (Sprague-Dawley) brain membranes were prepared; from tissue; host or cells: rat (Sprague-Dawley) brain membranes

guinea pig ileum = assay: Inhibition of electrically stimulated contraction of guinea pig ileum; format: cell-based; details: Cavia porcellus, mean of (n) experiments, read-out: Guinea Pig lleum ED50
Delta Receptor [1] = biological target: T3, Delta Receptor (Rattus norvegicus, UniProt P33533); assay: Delta receptor binding, rat brain membranes; set-up: species or system rat (Sprague-Dawley)
T3 construct: Rat (Sprague-Dawley) brain membranes were prepared; from tissue; host or cells: rat (Sprague-Dawley) brain membranes

delta-opioid receptor = assay: Tail flick test, injection into brain (icv); format: in vivo; details: mice
delta receptor [2] = biological target: delta receptor (Mus musculus, UniProt P32300); assay: Delta opioid receptor agonist activity; details: in words
[3] = 125I-[D-Ala2,N-MePhe4,Met(O)ol5]enkephalin 0.1 nM, 24° C., 60 min, mean of (n) experiments, read-out: Mu Receptor IC50
[4] = 125I-[D-Ala2,D-Leu5]enkephalin 0.24 nM with mu-agonist morphiceptin analog, 24° C., 60 min, mean of (n) experiments, read-out: Delta Receptor IC50
[5] = electrically stimulated, 37° C., mean of (n) experiments, read-out: Mouse Vas Deferens ED50

T3 sequence (P33533 whole entry): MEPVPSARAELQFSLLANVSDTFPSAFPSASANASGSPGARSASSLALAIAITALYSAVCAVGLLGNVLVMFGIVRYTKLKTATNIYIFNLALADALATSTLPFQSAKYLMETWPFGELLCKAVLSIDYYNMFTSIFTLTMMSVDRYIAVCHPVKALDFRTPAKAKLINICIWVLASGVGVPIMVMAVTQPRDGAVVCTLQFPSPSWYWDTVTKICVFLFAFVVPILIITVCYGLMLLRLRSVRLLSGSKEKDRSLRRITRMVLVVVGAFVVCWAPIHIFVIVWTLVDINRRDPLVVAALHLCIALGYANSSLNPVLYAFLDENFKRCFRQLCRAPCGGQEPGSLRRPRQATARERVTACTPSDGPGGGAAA
T2 sequence (P33535 whole entry): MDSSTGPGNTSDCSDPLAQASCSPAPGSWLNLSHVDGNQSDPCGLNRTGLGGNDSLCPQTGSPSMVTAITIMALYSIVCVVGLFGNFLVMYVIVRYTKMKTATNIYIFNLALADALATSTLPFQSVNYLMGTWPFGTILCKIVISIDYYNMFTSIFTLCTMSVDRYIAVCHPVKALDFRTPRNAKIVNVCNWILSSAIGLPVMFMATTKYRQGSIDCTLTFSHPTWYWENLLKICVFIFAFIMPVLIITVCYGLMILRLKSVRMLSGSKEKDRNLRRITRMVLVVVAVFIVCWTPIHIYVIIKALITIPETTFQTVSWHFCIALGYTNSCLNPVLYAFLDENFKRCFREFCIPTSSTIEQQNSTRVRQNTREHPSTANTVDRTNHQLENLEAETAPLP
T1 sequence (P32300 whole entry): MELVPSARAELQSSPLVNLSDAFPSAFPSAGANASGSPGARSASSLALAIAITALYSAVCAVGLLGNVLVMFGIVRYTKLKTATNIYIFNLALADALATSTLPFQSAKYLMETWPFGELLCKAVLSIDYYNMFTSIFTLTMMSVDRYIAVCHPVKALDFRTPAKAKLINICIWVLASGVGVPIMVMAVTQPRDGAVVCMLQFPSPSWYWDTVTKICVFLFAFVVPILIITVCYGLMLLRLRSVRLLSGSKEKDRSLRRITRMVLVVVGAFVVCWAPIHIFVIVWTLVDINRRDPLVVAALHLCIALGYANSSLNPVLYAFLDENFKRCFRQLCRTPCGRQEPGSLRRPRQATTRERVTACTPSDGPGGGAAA
Chain of delta receptor (P32300 whole entry): as above

`CCN(CC)C(=O)c1ccc([C@H](c2cccc(O)c2)N2C[C@H](C)N(C)C[C@@H]2C)cc1` [Example 12, (+)-N,N-diethyl-4-(3-hydroxy-(αR)-α-((2S,5S)-2,4,5-trimethyl-1-piperazinyl)benzyl)benzamide] showed an IC50 (mouse vas deferens) of 2 nM, an IC50 (Mu Receptor; [3]) of 150 nM and an IC50 (guinea pig ileum) greater than 10000 nM. It also gave an IC50 (Delta Receptor [1]; [4]) of 1.2 nM.
For `C=C(C)CN1C[C@H](C)N(C(c2ccc(S(=O)(=O)N(CC)CC)cc2)c2cccc(O)c2)C[C@H]1C` (stereo partly drawn) [Compound D], the “agonist activity in the mouse vas deferens” value (mouse vas deferens; in words) was “potent agonist”, the “analgesic activity in the tail flick test” value (delta-opioid receptor) was “provide analgesic activity” and the “reversal of analgesia by injection of naloxone or delta-specific antagonists (ICI 174,864 or naltrindole)” value (delta-opioid receptor) was “reversible”.
`C=CCN1C[C@H](C)N([C@H](c2ccc(S(C)(=O)=O)cc2)c2cccc(O)c2)C[C@H]1C` (relative stereo) [Example 54, (±)-3-((αR*)-α-((2S*,5R*)-4-allyl-2,5-dimethyl-1-piperazinyl)-4-(methylsulfonyl)benzyl)phenol] gave an IC50 (mouse vas deferens) of 42 nM, an IC50 (Mu Receptor; [3]) of 40 nM and an IC50 (guinea pig ileum) of 5600 nM. The IC50 (Delta Receptor [1]; [4]) was 1.3 nM.
Work on `C=CCN1C[C@H](C)N([C@H](c2ccc(S(=O)(=O)N(CC)CC)cc2)c2cccc(O)c2)C[C@H]1C` (relative stereo) [Example 59, (±)-4-((αR*)-α-((2S*,5R*)-4-Allyl-2,5-dimethyl-1-piperazinyl)-3-hydroxybenzyl)-N,N-diethylbenzenesulfonamide] yielded an IC50 (mouse vas deferens) of 2.6 nM, an IC50 (Mu Receptor; [3]) of 100 nM and an IC50 (guinea pig ileum) of 1800 nM. The IC50 (Delta Receptor [1]; [4]) was 20 nM.
With `C=CCN1C[C@H](C)N([C@H](c2ccc(C(=O)NCC(=O)NCC(=O)O)cc2)c2cccc(O)c2)C[C@H]1C` (relative stereo) [Compound H] the “delta receptor agonist activity” value (delta receptor [2]) was “delta receptor agonist activity”.
In the case of `C=CCN1C[C@H](C)N([C@H](c2ccc(C(=O)N(CC)CCO)cc2)c2cccc(O)c2)C[C@H]1C` (relative stereo) [Compound J], the “delta receptor agonist activity” value (delta receptor [2]) is reported as “potent delta receptor agonist activity”.
`C=CCN1C[C@@H](C)N([C@H](c2ccccc2)c2cccc(O)c2)C[C@@H]1C` (relative stereo) [Example 9, (±)-3-((αR*)-α-((2R*,5S*)-4-Allyl-2,5-dimethyl-1-piperazinyl)benzyl)phenol] gave an IC50 (mouse vas deferens) of 40 nM, an IC50 (Mu Receptor; [3]) of 1.1 nM and an IC50 (guinea pig ileum) of 4 nM. It also gave an IC50 (Delta Receptor [1]; [4]) of 16 nM.
`C=CCN1C[C@H](C)N([C@@H](c2cccc(O)c2)c2cccc(C(=O)N(CC)CC)c2)C[C@H]1C` (relative stereo) [Example 84, (±)-3-((αR*)-α-((2S*,5R*)-4-allyl-2,5-dimethyl-1-piperazinyl)-3-hydroxybenzyl)-N,N-diethylbenzamide] gave an IC50 (mouse vas deferens) of 8.6 nM, an IC50 (guinea pig ileum) of 10 nM and an IC50 (Delta Receptor [1]; [4]) of 1.6 nM.
`C=CCN1C[C@H](C)N([C@H](c2ccc(C(=O)N(CC)CC)cc2)c2cccc(O)c2)C[C@H]1C` (relative stereo) [Example 6, (±)-4-((αR*)-α-((2S*,5R*)-4-Allyl-2,5-dimethyl-1-piperazinyl)-3-hydroxybenzyl)-N,N-diethylbenzamide] gave an IC50 (mouse vas deferens) of 0.2 nM, an IC50 (guinea pig ileum) of 143 nM and an IC50 (Delta Receptor [1]; [4]) of 1.8 nM.
`C=CCN1C[C@H](C)N([C@H](c2cccc(O)c2)c2cccs2)C[C@H]1C` (relative stereo) [Example 44, (±)-3-((R*)-((2S*,5R*)-4-Allyl-2,5-dimethyl-1-piperazinyl)(2-thienyl)methyl)phenol] was tested, and the IC50 (mouse vas deferens) was 37 nM, the IC50 (Mu Receptor; [3]) was 0.8 nM and the IC50 (Delta Receptor [1]; [4]) was 11 nM.
`CCN(CC)C(=O)c1ccc([C@H](c2cccc(O)c2)N2C[C@H](C)NC[C@H]2C)cc1` (relative stereo) [Example 15, (±)-4-((αR*)-α-((2R*,5S*)-2,5-Dimethyl-1-piperazinyl)-3-hydroxybenzyl)-N,N-diethylbenzamide] was tested, and the IC50 (mouse vas deferens) was 4400 nM, the IC50 (Mu Receptor; [3]) was 120 nM and the IC50 (guinea pig ileum) was 2700 nM.
Molecule `C=CCN1C[C@H](C)N(C(c2ccc(C(=O)N(CC)CC)cc2)c2cccc(NC=O)c2)C[C@H]1C` (mixture of isomers) [Example 36, (±)-trans-4-(α-(4-allyl-2,5-dimethyl-1-piperazinyl)-3-formamidobenzyl)-N,N -diethylbenzamide] has an IC50 (mouse vas deferens) of 2 nM, an IC50 (Mu Receptor; [3]) of 260 nM and an IC50 (guinea pig ileum) of 1300 nM. The IC50 (Delta Receptor [1]; [4]) was 9.1 nM.
`C/C=C\CN1[C@H](C)CN(C(c2ccc(C(=O)N(CC)CC)cc2)c2cccc(O)c2)C[C@@H]1C` (relative stereo) [Example 11, cis-4-(α-(4-((Z)-2-Butenyl)-3,5-dimethyl-1-piperazinyl)-3-hydroxybenzyl)-N,N-diethylbenzamide] gave an IC50 (mouse vas deferens) greater than 10000 nM, an IC50 (Mu Receptor; [3]) of 600 nM and an IC50 (guinea pig ileum) of 3600 nM.
For `C=CCN1C[C@H](C)N([C@H](c2ccc(C(=O)NCC(=O)NCC(=O)O)cc2)c2cccc(O)c2)C[C@H]1C` (relative stereo) [Example 25, (±)-N-(4-((αR*)-α-((2S*,5R*)-4-Allyl-2,5-dimethyl-1-piperazinyl)-3-hydroxybenzyl)benzoyl)glycylglycine], the IC50 (mouse vas deferens) was 2 nM, the IC50 (Mu Receptor; [3]) was 70 nM and the IC50 (guinea pig ileum) was 300 nM. The IC50 (Delta Receptor [1]; [4]) was 0.4 nM.
Work on `C=CCN1C[C@H](C)N([C@H](c2ccc(C(=O)N(CC)CCO)cc2)c2cccc(O)c2)C[C@H]1C` (relative stereo) [Example 60, (±)-4-((αR*))-α-((2S*,5R*)-4-Allyl-2,5-dimethyl-1-piperazinyl)-3-hydroxy-benzyl)-N-ethyl-N-(2-hydroxyethyl)benzamide] yielded an IC50 (mouse vas deferens) of 0.3 nM, an IC50 (Mu Receptor; [3]) of 20 nM and an IC50 (guinea pig ileum) of 86 nM. It also gave an IC50 (Delta Receptor [1]; [4]) of 6.5 nM.
Molecule `C=CCN1C[C@H](C)N([C@H](c2ccc(C(=O)N(CC)CC)cc2)c2cccc(O)c2)C[C@H]1C` [Example 6a, (+)-4-((αR)-α-((2S,5R)-4-Allyl-2,5-dimethyl-1-piperazinyl)-3-hydroxybenzyl)-N,N-diethylbenzamide] has an IC50 (mouse vas deferens) of 0.17 nM, an IC50 (guinea pig ileum) of 84 nM and an IC50 (Delta Receptor [1]; [4]) of 1.2 nM.
`CCN(CC)C(=O)c1ccc(C(c2cccc(O)c2)N2C[C@@H](C)N(C)[C@@H](C)C2)cc1` (relative stereo) [Example 34, N,N-Diethyl-4-(3-hydroxy-α-(cis-3,4,5-trimethyl-1-piperazinyl)benzyl)benzamide] was tested, and the IC50 (mouse vas deferens) was greater than 10000 nM, the IC50 (Mu Receptor; [3]) was greater than 10000 nM and the IC50 (guinea pig ileum) was 3700 nM. For the same molecule, the IC50 (Delta Receptor [1]; [4]) was 4 nM.
For `C=CCN1C[C@H](C)N([C@H](c2ccc(C(=O)NCCOCCOCCNC(=O)c3ccc([C@H](c4cccc(O)c4)N4C[C@@H](C)N(CC=C)C[C@@H]4C)cc3)cc2)c2cccc(O)c2)C[C@H]1C` (relative stereo) [Example 41, N,N'-((Ethylenedioxy)diethylene)bis(4-((R*)-α-((2S*,5R*)-4-allyl-2,5-dimethyl-1-piperazinyl)-3-hydroxybenzyl)benzamide)], the IC50 (mouse vas deferens; [5]) was 13 nM, the IC50 (Mu Receptor; [3]) was 4 nM and the IC50 (guinea pig ileum) was 6.5 nM. For the same molecule, the IC50 (Delta Receptor [1]; [4]) was 10 nM.
For `CCN(CC)C(=O)c1ccc(C(C2=C(C)CN(C)C(C)C2)c2cccc(O)c2)cc1` (racemic) [Example 51, (±)-(R*, R*) or (R*, S*)-N,N-diethyl-4-(3-hydroxy-α-(1,2,5,6-tetrahydro-1,3,6-trimethyl-4-pyridyl)benzyl)benzamide], the IC50 (mouse vas deferens; [5]) was 52 nM, the IC50 (Mu Receptor; [3]) was 130 nM and the IC50 (guinea pig ileum) was 3000 nM. The IC50 (Delta Receptor [1]; [4]) was 2.5 nM.
Work on `C=CCN1C[C@H](C)N([C@H](c2cccc(O)c2)c2cccs2)C[C@H]1C` [Example 67, (-)-3-((R)-((2S,5R)-4-Allyl-2,5-dimethyl-1-piperazinyl)(2-thienyl)methyl)phenol] yielded an IC50 (mouse vas deferens; read-out: Mouse Vas Deferens ED50, electrically stimulated, 37° C., mean of (n) experiments) of 20 nM, an IC50 (Mu Receptor; read-out: Mu Receptor IC50, 125I-[D-Ala2,N-MePhe4,Met(O)ol5]enkephalin 0.1 nM, 24° C., 60 min, mean of (n) experiments) of 0.3 nM and an IC50 (Delta Receptor [1]; read-out: Delta Receptor IC50, 125I-[D-Ala2,D-Leu5]enkephalin 0.24 nM with mu-agonist morphiceptin analog, 24° C., 60 min, mean of (n) experiments) of 27 nM.
